Our source for the TGI values is PubChem BioAssay (NCI).

Among the test systems are OVCAR-4 ovarian; MOLT-4 leukemia; SNB-75 CNS; HS 578T breast; MALME-3M melanoma; MDA-MB-231 breast; SK-OV-3 ovarian; IGROV1 ovarian; RXF 393 renal; A498 renal; OVCAR-8 ovarian; HCT-15 colon; SN12C renal; OVCAR-5 ovarian; EKVX NSCLC; UO-31 renal; CCRF-CEM leukemia; SK-MEL-28 melanoma; NCI-H460 lung.
Holding throughout (assay): growth of human tumour cells (NCI), 48 h

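Test compounds were applied to cells in 96-well plates for 48 hours at 5 doses. TGI: total growth inhibition.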 Where a SMILES comes first, the peptide text is derived from it. The star is where a group is joined. Boc = CC(C)(C)OC(=O)*; OBn = c1ccc(CO*)cc1 Some results are limits rather than exact numbers.

Take `Cc1n[nH]c(=O)n1/N=C\CC/C=N\n1c(C)n[nH]c1=O`: the TGI in the experiment with OVCAR-4 ovarian, with MOLT-4 leukemia, in the experiment on SNB-75 CNS, in the experiment on HS 578T breast, in the experiment on MALME-3M melanoma and in the experiment on MDA-MB-231 breast was over 100 µM in each case. The TGI in the experiment on SK-OV-3 ovarian, with IGROV1 ovarian, in the experiment on RXF 393 renal, in the experiment on A498 renal, in the experiment on OVCAR-8 ovarian and in the experiment on HCT-15 colon was over 100 µM throughout. The TGI in the experiment on SN12C renal, with OVCAR-5 ovarian, in the experiment with EKVX NSCLC, with UO-31 renal, with CCRF-CEM leukemia and in the experiment with SK-MEL-28 melanoma was over 100 µM each time.
Consider `CC(NC(=O)C(Cc1ccccc1)NC(=O)C(Cc1ccccc1)NC(=O)OC(C)(C)C)C(=O)OCc1ccccc1` (stereo not drawn) (Boc-Phe-Phe-Ala-OBn; configuration not given here), for which the TGI with MOLT-4 leukemia, in the experiment with SNB-75 CNS, in the experiment on NCI-H460 lung, with HS 578T breast, in the experiment with MALME-3M melanoma and with MDA-MB-231 breast was over 100 µM throughout. Besides, the TGI in the experiment with SK-OV-3 ovarian, in the experiment with IGROV1 ovarian, in the experiment on RXF 393 renal, in the experiment on A498 renal, in the experiment on OVCAR-8 ovarian and in the experiment with SN12C renal was over 100 µM throughout. For the same molecule, the TGI in the experiment with OVCAR-5 ovarian, with EKVX NSCLC, with UO-31 renal and in the experiment on CCRF-CEM leukemia was over 100 µM each time.
With `CC(C)(C)OC(=O)N/N=C(/N)Cc1ccccc1`, the TGI with OVCAR-4 ovarian, in the experiment with MOLT-4 leukemia, in the experiment with SNB-75 CNS, with HS 578T breast, with MALME-3M melanoma and in the experiment on MDA-MB-231 breast was over 100 µM in each case. The TGI with SK-OV-3 ovarian, with IGROV1 ovarian, in the experiment with RXF 393 renal, in the experiment on A498 renal, with OVCAR-8 ovarian and with HCT-15 colon was over 100 µM throughout. The TGI in the experiment with SN12C renal, with OVCAR-5 ovarian, in the experiment with EKVX NSCLC, with UO-31 renal, in the experiment with CCRF-CEM leukemia and in the experiment on SK-MEL-28 melanoma was over 100 µM each time.
For `O=C1NC(=O)C(COCc2ccccc2)C2=C1SCCC2` (configuration not stated), the TGI in the experiment on OVCAR-4 ovarian, with MOLT-4 leukemia, with SNB-75 CNS, in the experiment with NCI-H460 lung, with HS 578T breast and in the experiment with MALME-3M melanoma was over 100 µM each time. In addition, the TGI with MDA-MB-231 breast, with IGROV1 ovarian, in the experiment with RXF 393 renal, in the experiment on A498 renal, in the experiment on OVCAR-8 ovarian and with HCT-15 colon was over 100 µM each time. Also, the TGI in the experiment with EKVX NSCLC, with UO-31 renal, in the experiment on CCRF-CEM leukemia and in the experiment on SK-MEL-28 melanoma was over 100 µM each time.
As to `CCCCOCCOC1=CC(=O)c2c(O)ccc(O)c2C1=O`, the TGI amounted to 3.33 µM with OVCAR-4 ovarian; 9.38 µM in the experiment with MOLT-4 leukemia; 2.91 µM in the experiment on SNB-75 CNS; 3.43 µM in the experiment with NCI-H460 lung; 4.99 µM with HS 578T breast; 0.738 µM in the experiment with MALME-3M melanoma. Moreover, the TGI in the experiment with MDA-MB-231 breast is 3.85 µM; with SK-OV-3 ovarian, over 10 µM; with IGROV1 ovarian, 3.35 µM; with RXF 393 renal it was 3.02 µM; in the experiment on A498 renal, 3 µM; with SN12C renal, 3.03 µM. The TGI worked out at 3.08 µM in the experiment with EKVX NSCLC, 3.01 µM in the experiment with UO-31 renal, 4.04 µM in the experiment on CCRF-CEM leukemia and 3 µM in the experiment with SK-MEL-28 melanoma.
On to `COc1cc(/C=C2\C(=O)N(Cc3ccccc3)C(c3ccccc3)S2(=O)=O)cc(OC)c1OC` (configuration not stated), for which the TGI with OVCAR-4 ovarian was over 100 µM; with MOLT-4 leukemia, 14.7 µM; in the experiment with NCI-H460 lung it was over 100 µM; in the experiment with HS 578T breast, over 100 µM; in the experiment on MALME-3M melanoma, over 100 µM; in the experiment on MDA-MB-231 breast it was over 100 µM. Also, the TGI with SK-OV-3 ovarian, with RXF 393 renal, in the experiment on A498 renal, with OVCAR-8 ovarian, in the experiment on HCT-15 colon and in the experiment on SN12C renal was over 100 µM each time. In addition, the TGI with OVCAR-5 ovarian, in the experiment with EKVX NSCLC, with UO-31 renal, with CCRF-CEM leukemia and with SK-MEL-28 melanoma was over 100 µM throughout.
For the molecule `COc1ccc(C(=O)/C=C/c2cccnc2)cc1OC`, the TGI came out at 25.7 µM in the experiment with OVCAR-4 ovarian; 14.1 µM with MOLT-4 leukemia; 24.4 µM in the experiment with SNB-75 CNS; 49.6 µM in the experiment with HS 578T breast; 28.5 µM with MALME-3M melanoma; 23.8 µM with MDA-MB-231 breast. Besides, the TGI in the experiment on SK-OV-3 ovarian amounted to 28.6 µM; in the experiment with IGROV1 ovarian it was 21.9 µM; in the experiment on RXF 393 renal, 18.6 µM; in the experiment with A498 renal it was 27.8 µM; with OVCAR-8 ovarian, 18.6 µM; in the experiment on HCT-15 colon, 23.9 µM. Further, the TGI in the experiment on SN12C renal is 18.3 µM; in the experiment on OVCAR-5 ovarian, 24.6 µM; in the experiment with EKVX NSCLC, 28.7 µM; in the experiment with UO-31 renal it was 26.3 µM; in the experiment with CCRF-CEM leukemia it was over 100 µM; in the experiment with SK-MEL-28 melanoma it was 33.1 µM.
As to `COc1cccc2c1C(=O)c1ccc3cc(CCl)cc(O)c3c1C2=O`, the TGI in the experiment with MOLT-4 leukemia is 2.88 µM; with SNB-75 CNS it was 1.67 µM; in the experiment with NCI-H460 lung it was 0.768 µM; in the experiment with HS 578T breast it was 2.32 µM; with MALME-3M melanoma, 0.515 µM; in the experiment on MDA-MB-231 breast it was 0.35 µM. The TGI with SK-OV-3 ovarian amounted to 1.83 µM; in the experiment with IGROV1 ovarian, 1.54 µM; in the experiment with RXF 393 renal, 0.756 µM; in the experiment on A498 renal, 1.7 µM; with OVCAR-8 ovarian, 0.612 µM; with HCT-15 colon, 1.13 µM. For the same molecule, the TGI with SN12C renal is 0.334 µM; in the experiment with OVCAR-5 ovarian, 1.71 µM; in the experiment with EKVX NSCLC, 1.57 µM; in the experiment with UO-31 renal, 1.14 µM; in the experiment with CCRF-CEM leukemia, 1.98 µM; with SK-MEL-28 melanoma, 1.04 µM.
